Measured values published in patent US8389513B2, “2-amino-5,5-difluoro-5,6-dihydro-4H-[1,3]oxazin-4-yl)-phenyl]-amides” (Hoffmann-La Roche Inc., priority 2009, dated 2013).

Legend:
BACE1 = target: T1, BACE1 (Homo sapiens, UniProt P56817); assay: Cellular Aβ-lowering assay (Aβ40 ELISA); assay type: cell-based; settings: HEK293 cells stably expressing human APP695; Aβ40 in culture supernatant; read-out: BACE1 cell act. Aβ40 IC50
T1 construct: Human HEK293 cells which are stably transfected with a vector expressing a cDNA of the human APP wt gene (APP695); endogenous in cells; host or cells: HEK293 stably transfected with human APP695 wt
Procedure: Cellular Aβ-Lowering Assay:
Human HEK293 cells which are stably transfected with a vector expressing a cDNA of the human APP wt gene (APP695) were used to assess the potency of the compounds in a cellular assay. The cells were seeded in 96-well microtiter plates in cell culture medium (Iscove, plus 10% (v/v) fetal bovine serum, glutamine, penicillin/streptomycin) to about 80% confluence and the compounds were added at a 10× concentration in 1/10 volume of medium without FCS containing 8% DMSO (final concentration of DMSO was kept at 0.8% v/v). After 18-20 hrs incubation at 37° C. and 5% CO2 in a humidified incubator the culture supernatant was harvested for the determination of Aβ40 concentrations. […] Subsequently the wells of the microtiter plate were washed extensively with Tris-buffered saline containing 0.05% Tween 20 and the assay was developed with tetramethylbenzidine/H2O2 in citric acid buffer. After stopping the reaction with one volume 1 NH2SO4 the reaction was measured in an ELISA reader at 450 nm wavelength. The concentrations of Aβ in the culture supernatants were calculated from a standard curve obtained with known amounts of pure Aβ peptide.

BACE2 = target: T2, BACE2 (Rattus norvegicus, UniProt Q6IE75); assay: Assay for BACE inhibition by measuring cellular TMEM27 cleavage; assay type: cell-based; settings: INS-TMEM27 cells (INS1e-derived); shed TMEM27 by ELISA; read-out: BACE2 cell act. IC50
T2 construct: endogenous cellular BACE2 in the Ins1e rat cell line; endogenous in cells; host or cells: INS-TMEM27 (INS1e-derived rat cell line with TetOn-inducible full-length hTMEM27)
T2 sequence (Q6IE75 63-514): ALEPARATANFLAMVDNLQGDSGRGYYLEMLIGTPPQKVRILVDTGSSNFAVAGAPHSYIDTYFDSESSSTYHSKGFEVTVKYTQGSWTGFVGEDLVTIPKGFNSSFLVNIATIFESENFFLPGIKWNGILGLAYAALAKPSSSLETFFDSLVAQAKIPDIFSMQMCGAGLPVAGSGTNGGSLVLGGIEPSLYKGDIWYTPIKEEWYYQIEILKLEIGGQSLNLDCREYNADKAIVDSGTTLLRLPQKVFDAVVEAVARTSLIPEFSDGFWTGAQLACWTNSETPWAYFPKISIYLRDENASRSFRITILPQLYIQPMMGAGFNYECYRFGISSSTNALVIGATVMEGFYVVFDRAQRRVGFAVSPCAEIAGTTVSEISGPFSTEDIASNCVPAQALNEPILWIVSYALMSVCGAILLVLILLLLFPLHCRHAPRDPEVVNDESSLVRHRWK
Source text: Assay for BACE Inhibition by Measuring Cellular TMEM27 Cleavage:
The assay uses the principle of inhibition of human TMEM27 cleavage by endogenous cellular BACE2 in the Ins1e rat cell line and shedding from the cell surface into the culture medium, followed by detection in an ELISA assay. Inhibition of BACE2 prevents the cleavage and shedding in a dose-dependent manner.
The stable cell line “INS-TMEM27” represents an INS1e-derived cell line with inducible expression (using the TetOn system) of full-length hTMEM27 in a doxycycline-dependent manner. The cells are cultured throughout the experiment in RPMI1640+Glutamax (Invitrogen) Penicillin/Streptomycin, 10% Fetal bovine serum, […] pyruvate, […] beta-mercatptoethanol, 100 micrograms/ml G418 and 100 microgram/ml hygromycin and are grown inadherent culture at 37° C. in a standard CO2 cell culture incubator. INS-TMEM27 cells are seeded in 96-well plates. After 2 days in culture, BACE2 inhibitor is added in a range of concentrations as required by the assay and after a further two hours, doxycycline is added to a final concentration of 500 ng/ml. The cells are incubated for a further 46 hours and the supernatant harvested for detection of shed TMEM27.
An ELISA assay (using a pair of mouse anti-human-TMEM27 antibodies, raised against the extracellular domain of TMEM27) is used for detection of TMEM27 in the culture medium. An EC50 for BACE2 inhibition is calculated using the ELISA readout for each inhibitor concentration with standard curve-fitting software such as XLFit for the Excel spreadsheet program.

T1 sequence (P56817 46-501): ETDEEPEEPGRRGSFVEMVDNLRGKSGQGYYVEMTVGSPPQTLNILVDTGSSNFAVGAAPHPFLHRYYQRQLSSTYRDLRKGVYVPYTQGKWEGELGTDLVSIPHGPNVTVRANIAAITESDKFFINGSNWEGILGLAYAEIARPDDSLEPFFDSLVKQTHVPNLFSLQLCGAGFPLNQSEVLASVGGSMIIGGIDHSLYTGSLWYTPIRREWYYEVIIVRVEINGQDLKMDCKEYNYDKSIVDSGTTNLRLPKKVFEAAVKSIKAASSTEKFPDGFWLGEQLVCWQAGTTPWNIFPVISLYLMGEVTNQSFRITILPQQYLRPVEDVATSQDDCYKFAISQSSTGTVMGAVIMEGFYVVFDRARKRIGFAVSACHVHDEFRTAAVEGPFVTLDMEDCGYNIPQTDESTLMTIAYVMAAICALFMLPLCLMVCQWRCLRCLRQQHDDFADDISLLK

| SMILES | IC50 (BACE1) | IC50 (BACE2) |
| --- | --- | --- |
| C[C@]1(c2cc(NC(=O)C3(C(F)(F)F)CC3)ccc2F)N=C(N)OCC1(F)F [Example 75, 1-Trifluoromethyl-cyclopropanecarboxylic acid [3-((R)-2-amino-5,5-difluoro-4-methyl-5,6-dihydro-4H-[1,3]oxazin-4-yl)-4-fluoro-phenyl]-amide] | 1490 nM | 1010 nM |
| CC1(C)OC(N)=N[C@](C)(c2cc(NC(=O)c3ncc(Cl)cc3Cl)ccc2F)C1(F)F [Example 23, 3,5-Dichloro-pyridine-2-carboxylic acid [3-((R)-2-amino-5,5-difluoro-4,6,6-trimethyl-5,6-dihydro-4H-[1,3]oxazin-4-yl)-4-fluoro-phenyl]-amide] | 11 nM | 66 nM |
| CC1(C)OC(N)=N[C@](C)(c2cc(NC(=O)c3ncc(C(F)(F)F)cn3)ccc2F)C1(F)F [Example 33, 5-Trifluoromethyl-pyrimidine-2-carboxylic acid [3-((R)-2-amino-5,5-difluoro-4,6,6-trimethyl-5,6-dihydro-4H-[1,3]oxazin-4-yl)-4-fluoro-phenyl]-amide] | 29 nM | 2610 nM |
| C[C@]1(c2cc(NC(=O)c3ncccc3C(F)(F)F)ccc2F)N=C(N)OCC1(F)F [Example 6, 3-Trifluoromethyl-pyridine-2-carboxylic acid [3-((R)-2-amino-5,5-difluoro-4-methyl-5,6-dihydro-4H-[1,3]oxazin-4-yl)-4-fluoro-phenyl]-amide] | 180 nM | 330 nM |
| Cc1nc(C(=O)Nc2ccc(F)c([C@@]3(C)N=C(N)OCC3(F)F)c2)c(C(F)(F)F)o1 [Example 60, 2-Methyl-5-trifluoromethyl-oxazole-4-carboxylic acid [3-((R)-2-amino-5,5-difluoro-4-methyl-5,6-dihydro-4H-[1,3]oxazin-4-yl)-4-fluoro-phenyl]-amide] | 88 nM | 367 nM |
| C[C@]1(c2cc(NC(=O)c3nn(CC(F)F)cc3Cl)ccc2F)N=C(N)OCC1(F)F [Example 68, 4-Chloro-1-(2,2-difluoro-ethyl)-1H-pyrazole-3-carboxylic acid [3-((R)-2-amino-5,5-difluoro-4-methyl-5,6-dihydro-4H-[1,3]oxazin-4-yl)-4-fluoro-phenyl]-amide] | 927 nM | 230 nM |
| C[C@]1(c2cccc(NC(=O)c3ccc(C#N)cn3)c2)N=C(N)OCC1(F)F [Example 53, 5-Cyano-pyridine-2-carboxylic acid [3-((R)-2-amino-5,5-difluoro-4-methyl-5,6-dihydro-4H-[1,3]oxazin-4-yl)-phenyl]-amide] | 13 nM | 349 nM |
| C[C@]1(c2cc(NC(=O)c3ncc(Cl)cn3)ccc2F)N=C(N)OCC1(F)F [Example 12, 5-Chloro-pyrimidine-2-carboxylic acid [3-((R)-2-amino-5,5-difluoro-4-methyl-5,6-dihydro-4H-[1,3]oxazin-4-yl)-4-fluoro-phenyl]-amide] | 23 nM | 69 nM |
| C[C@]1(c2cc(NC(=O)C3CC3(F)F)ccc2F)N=C(N)OCC1(F)F (mixture of isomers) [Example 74, (RS)-2,2-Difluoro-cyclopropanecarboxylic acid [3-((R)-2-amino-5,5-difluoro-4-methyl-5,6-dihydro-4H-[1,3]oxazin-4-yl)-4-fluoro-phenyl]-amide] | 510 nM | 590 nM |
| CC1(C)OC(N)=N[C@](C)(c2cc(NC(=O)c3ccc(OCC(F)(F)F)cn3)ccc2F)C1(F)F [Example 29, 5-(2,2,2-Trifluoro-ethoxy)-pyridine-2-carboxylic acid [3-((R)-2-amino-5,5-difluoro-4,6,6-trimethyl-5,6-dihydro-4H-[1,3]oxazin-4-yl)-4-fluoro-phenyl]-amide] | 140 nM | 44300 nM |
| CC1(C)OC(N)=N[C@](C)(c2cc(NC(=O)c3ccc(OCF)cn3)ccc2F)C1(F)F [Example 26, 5-Fluoromethoxy-pyridine-2-carboxylic acid [3-((R)-2-amino-5,5-difluoro-4,6,6-trimethyl-5,6-dihydro-4H-[1,3]oxazin-4-yl)-4-fluoro-phenyl]-amide] | 30 nM | 761 nM |
| C[C@]1(c2cc(NC(=O)c3ncc(Cl)cc3F)ccc2F)N=C(N)OCC1(F)F [Example 15, 5-Chloro-3-fluoro-pyridine-2-carboxylic acid [3-((R)-2-amino-5,5-difluoro-4-methyl-5,6-dihydro-4H-[1,3]oxazin-4-yl)-4-fluoro-phenyl]-amide] | 9 nM | 52 nM |
| CC1(C)OC(N)=N[C@](C)(c2cc(NC(=O)c3ccc(Cl)cn3)ccc2F)C1(F)F [Example 19, 5-Chloro-pyridine-2-carboxylic acid [3-((R)-2-amino-5,5-difluoro-4,6,6-trimethyl-5,6-dihydro-4H-[1,3]oxazin-4-yl)-4-fluoro-phenyl]-amide] | 70 nM | 120 nM |
| C[C@]1(c2cc(NC(=O)c3[nH]ncc3Cl)ccc2F)N=C(N)OCC1(F)F [Example 65, 4-Chloro-2H-pyrazole-3-carboxylic acid [3-((R)-2-amino-5,5-difluoro-4-methyl-5,6-dihydro-4H-[1,3]oxazin-4-yl)-4-fluoro-phenyl]-amide] | 404 nM | 543 nM |
| CC1(C)OC(N)=N[C@](C)(c2cc(NC(=O)c3ncc(Cl)cc3F)ccc2F)C1(F)F [Example 24, 5-Chloro-3-fluoro-pyridine-2-carboxylic acid [3-((R)-2-amino-5,5-difluoro-4,6,6-trimethyl-5,6-dihydro-4H-[1,3]oxazin-4-yl)-4-fluoro-phenyl]-amide] | 12 nM | 70 nM |
| CC1(C)OC(N)=N[C@](C)(c2cc(NC(=O)c3ccc(C(F)(F)F)cn3)ccc2F)C1(F)F [Example 25, 5-Trifluoromethyl-pyridine-2-carboxylic acid [3-((R)-2-amino-5,5-difluoro-4,6,6-trimethyl-5,6-dihydro-4H-[1,3]oxazin-4-yl)-4-fluoro-phenyl]-amide] | 25 nM | 2250 nM |
| C[C@]1(c2cc(NC(=O)c3ncc(Cl)nc3Cl)ccc2F)N=C(N)OCC1(F)F [Example 48, 3,5-Dichloro-pyrazine-2-carboxylic acid [3-((R)-2-amino-5,5-difluoro-4-methyl-5,6-dihydro-4H-[1,3]oxazin-4-yl)-4-fluoro-phenyl]-amide] | 1130 nM | 6740 nM |
| CC1(C)OC(N)=N[C@](C)(c2cc(NC(=O)c3ncc(Cl)cn3)ccc2F)C1(F)F [Example 32, 5-Chloro-pyrimidine-2-carboxylic acid [3-((R)-2-amino-5,5-difluoro-4,6,6-trimethyl-5,6-dihydro-4H-[1,3]oxazin-4-yl)-4-fluoro-phenyl]-amide] | 16 nM | 20 nM |
| C[C@]1(c2cc(NC(=O)c3ccc(Cl)cn3)ccc2Cl)N=C(N)OCC1(F)F [Example 50, 5-Chloro-pyridine-2-carboxylic acid [3-((R)-2-amino-5,5-difluoro-4-methyl-5,6-dihydro-4H-[1,3]oxazin-4-yl)-4-chloro-phenyl]-amide] | 17 nM | 24 nM |
